Data published in ChEMBL document CHEMBL3352326, “Synthesis of 2,3-di- and 2,2,3-trisubstituted-3-methoxycarbonyl-γ-butyrolactones as potent antitumor agents” (Eur J Med Chem, 2015).
Activity calls are given as the source filed them. No cut-off for these calls is given here.

Experiments:
[1] = system: KB; assay: Growth inhibition of human KB cells at 10 uM after 72 hrs by MTS assay; type: functional; settings: read-out: GI
[2] = Growth inhibition of human HCT116 cells at 10 uM after 72 hrs by MTS assay; type: functional; settings: HCT-116, 72 h, read-out: GI
[3] = system: MCF7; assay: Growth inhibition of human MCF7 cells at 10 uM after 72 hrs by MTS assay; type: functional; settings: MCF7, 72 h, read-out: GI
[4] = Growth inhibition of human HL60 cells at 10 uM after 72 hrs by MTS assay; type: functional; settings: HL-60, 72 h, read-out: GI
[5] = system: HL-60; assay: Induction of necrosis in intact human HL60 cells assessed as cytosolic LDH release at 50 uM; type: functional, cell-based
[6] = system: HL-60; assay: Induction of necrosis in intact human HL60 cells assessed as cytosolic LDH release at 1 uM; type: functional, cell-based
[7] = system: HL-60; assay: Induction of apoptosis in human HL60 cells assessed as dead cells level at 100 nM annexin V-PE and 7-AAD staining based by flow cytometry (reference value: 0.4%); type: functional
[8] = system: HL-60; assay: Induction of apoptosis in human HL60 cells assessed as late apoptosis cells level at 100 nM annexin V-PE and 7-AAD staining based by flow cytometry (reference value: 0.4%); type: functional
[9] = system: HL-60; assay: Induction of apoptosis in human HL60 cells assessed as intact cells level at 100 nM annexin V-PE and 7-AAD staining based by flow cytometry (reference value: 80.7%); type: functional
[10] = system: HL-60; assay: Induction of apoptosis in human HL60 cells assessed as early apoptotic cells level at 100 nM annexin V-PE and 7-AAD staining based by flow cytometry (reference value: 18.5%); type: functional
[11] = system: HL-60; assay: Induction of cell cycle arrest in human HL60 cells assessed as accumulation at G0/G1 phase at 50 nM after 48 hrs by propidium iodide staining based flow cytometry (reference value: 42.9%); type: functional
[12] = system: HL-60; assay: Induction of cell cycle arrest in human HL60 cells assessed as accumulation at S phase at 50 nM after 48 hrs by propidium iodide staining based flow cytometry (reference value: 45%); type: functional
[13] = system: HL-60; assay: Induction of cell cycle arrest in human HL60 cells assessed as accumulation at G2/M phase at 50 nM after 48 hrs by propidium iodide staining based flow cytometry (reference value: 11.6%); type: functional
[14] = system: HL-60; assay: Induction of cell cycle arrest in human HL60 cells assessed as accumulation at subG1 phase at 50 nM after 48 hrs by propidium iodide staining based flow cytometry (reference value: 0.5%); type: functional

Molecule `COC(=O)C1(Cc2ccccc2C(F)(F)F)CC(=O)OC1(C)c1ccccc1` (stereo unspecified) has an inhibition of growth at 10 µM [1] of 0%, an inhibition of growth at 10 µM [2] of 18% and an inhibition of growth at 10 µM [3] of 6%. It also gave an inhibition of growth at 10 µM [4] of 0%.
In the case of `CC1=CC(=O)c2ccccc2C1=O`, the Activity [5] is reported as “Active”.
For `COC(=O)C1(Cc2ccccc2)CC(=O)OC12CCCCC2` (stereo unspecified), the inhibition of growth at 10 µM [1] was 7%, the inhibition of growth at 10 µM [2] was 0% and the inhibition of growth at 10 µM [3] was 1%. It also gave an inhibition of growth at 10 µM [4] of 4%.
For `COC(=O)C1(Cc2cc(OC)c(OC)c(OC)c2)CC(=O)OC1c1cc(OC)c(OC)c(OC)c1` (stereo unspecified), the inhibition of growth at 10 µM [1] was 0%, the inhibition of growth at 10 µM [2] was 13% and the inhibition of growth at 10 µM [3] was 3%. The inhibition of growth at 10 µM [4] was 0%.
For `COC(=O)C1(Cc2ccc(OC)cc2)CC(=O)OC1(C)c1cc(OC)c(OC)c(OC)c1` (stereo unspecified), the inhibition of growth at 10 µM [1] was 0%, the inhibition of growth at 10 µM [2] was 8% and the inhibition of growth at 10 µM [3] was 7%. It also gave an inhibition of growth at 10 µM [4] of 24%.
Molecule `COC(=O)C1(Cc2ccccc2)CC(=O)OC1(C)C` (stereo unspecified) has an inhibition of growth at 10 µM [1] of 0%, an inhibition of growth at 10 µM [2] of 15% and an inhibition of growth at 10 µM [3] of 7%. For the same molecule, the inhibition of growth at 10 µM [4] was 9%.
For `COC(=O)C1(Cc2cccc(C(F)(F)F)c2)CC(=O)OC1c1ccccc1` (stereo unspecified), the inhibition of growth at 10 µM [1] was 39%, the inhibition of growth at 10 µM [2] was 14% and the inhibition of growth at 10 µM [3] was 11%. It also gave an inhibition of growth at 10 µM [4] of 34%.
`COC(=O)C1(Cc2ccccc2)CC(=O)OC1c1ccccc1` (stereo unspecified) showed an inhibition of growth at 10 µM [1] of 18%, an inhibition of growth at 10 µM [2] of 0% and an inhibition of growth at 10 µM [3] of 0%. For the same molecule, the inhibition of growth at 10 µM [4] was 22%.
Molecule `COC(=O)C1(Cc2ccc(OC)cc2)CC(=O)OC1c1cccc(C(F)(F)F)c1` (stereo unspecified) has an inhibition of growth at 10 µM [1] of 25%, an inhibition of growth at 10 µM [2] of 10% and an inhibition of growth at 10 µM [3] of 15%. For the same molecule, the inhibition of growth at 10 µM [4] was 14%.
Work on `CCCCCCC1OC(=O)CC1(Cc1ccc(OC)cc1)C(=O)OC` (stereo unspecified) yielded an inhibition of growth at 10 µM [1] of 13%, an inhibition of growth at 10 µM [2] of 12% and an inhibition of growth at 10 µM [3] of 28%. It also gave an inhibition of growth at 10 µM [4] of 8%.
`COC(=O)C1(Cc2ccc3c(c2)OCO3)CC(=O)OC1c1cc(OC)c(OC)c(OC)c1` (stereo unspecified) gave an inhibition of growth at 10 µM [1] of 0%, an inhibition of growth at 10 µM [2] of 22% and an inhibition of growth at 10 µM [3] of 8%. The inhibition of growth at 10 µM [4] was 10%.
With `COC(=O)C1(Cc2ccc3c(c2)OCO3)CC(=O)OC1c1ccccc1` (stereo unspecified) the inhibition of growth at 10 µM [1] was 0%, the inhibition of growth at 10 µM [2] was 18% and the inhibition of growth at 10 µM [3] was 11%. It also gave an inhibition of growth at 10 µM [4] of 18%.
In the case of `COC(=O)C1(Cc2ccc(OC)cc2)CC(=O)OC1c1ccc(C(F)(F)F)cc1` (stereo unspecified), the inhibition of growth at 10 µM [1] is reported as 0%, the inhibition of growth at 10 µM [2] is reported as 0% and the inhibition of growth at 10 µM [3] is reported as 4%. The inhibition of growth at 10 µM [4] was 2%.
Molecule `COC(=O)C1(Cc2ccccc2)CC(=O)OC1c1cc(OC)c(OC)c(OC)c1` (stereo unspecified) has an inhibition of growth at 10 µM [1] of 2%, an inhibition of growth at 10 µM [2] of 7% and an inhibition of growth at 10 µM [3] of 17%. It also gave an inhibition of growth at 10 µM [4] of 27%.
`COC(=O)C1(Cc2cccc(C(F)(F)F)c2)CC(=O)OC1(C)c1ccccc1` (stereo unspecified) gave an inhibition of growth at 10 µM [1] of 21%, an inhibition of growth at 10 µM [2] of 22% and an inhibition of growth at 10 µM [3] of 20%. It also gave an inhibition of growth at 10 µM [4] of 21%.
With `COC(=O)C1(Cc2ccc(OC)cc2)CC(=O)OC1(c1ccccc1)C(F)(F)F` (stereo unspecified) the inhibition of growth at 10 µM [1] was 56%, the inhibition of growth at 10 µM [2] was 20% and the inhibition of growth at 10 µM [3] was 8%. It also gave an inhibition of growth at 10 µM [4] of 64%.
In the case of `COC(=O)[C@]1(Cc2ccc(OC)cc2)CC(=O)O[C@]1(C)c1ccccc1`, the inhibition of growth at 10 µM [1] is reported as 15%, the inhibition of growth at 10 µM [2] is reported as 0% and the inhibition of growth at 10 µM [3] is reported as 0%. It also gave an inhibition of growth at 10 µM [4] of 24%.
`COC(=O)C1(Cc2ccccc2OC)CC(=O)OC1c1ccccc1` (stereo unspecified) gave an inhibition of growth at 10 µM [1] of 7%, an inhibition of growth at 10 µM [2] of 23% and an inhibition of growth at 10 µM [3] of 18%. It also gave an inhibition of growth at 10 µM [4] of 42%.
`COC(=O)C1(Cc2ccc(OC)cc2)CC(=O)OC1c1ccccc1` (stereo unspecified) gave an inhibition of growth at 10 µM [1] of 19%, an inhibition of growth at 10 µM [2] of 4% and an inhibition of growth at 10 µM [3] of 0%. The inhibition of growth at 10 µM [4] was 15%.
`CCC1(c2ccccc2)OC(=O)CC1(Cc1ccc(OC)cc1)C(=O)OC` (stereo unspecified) showed an inhibition of growth at 10 µM [1] of 11%, an inhibition of growth at 10 µM [2] of 28% and an inhibition of growth at 10 µM [3] of 21%. It also gave an inhibition of growth at 10 µM [4] of 30%.
For `COc1cccc2c1C(=O)c1c(O)c3c(c(O)c1C2=O)C[C@@](O)(C(=O)CO)C[C@@H]3O[C@H]1C[C@H](N)[C@H](O)[C@H](C)O1` [DOXORUBICIN], the Activity [6] was “inactive”, the Activity [7] was 0.5% and the Activity [8] was 3.15%. The Activity [9] was 14.7%, the Activity [10] was 81.65% and the Activity [11] was 23%. It also gave an Activity [12] of 32.5%, an Activity [13] of 40% and an Activity [14] of 4.5%.
